Measured values taken from patent US6946475B1, “Anticancer calcium channel blockers” (University of Virginia Patent Foundation, priority 1999, dated 2005).
Read-outs that look alike come from different tables or passages of the source.

Key:
[1] = tested on: PC3 prostate cancer cells; assay: Measurement of cellular proliferation, PC3 cells; format: cell-based, human
Method: (§1) Measurement of cellular proliferation: LNCaP cells at 2.5×10^4/well or PC3 cells at 5×10^4/well, both in a final volume of 100 μl, were plated in triplicate in standard flat bottom 96 well tissue culture plates in the presence of drug or vehicle (DMSO). Unless otherwise indicated, cells were grown for 48 hours at 37° C. in a CO2 incubator. Relative cell growth was determined with the CellTiter 96 aqueous cell proliferation assay (Promega, Madison, Wis.) as described by the manufacturer using an automated plate reader. Results were calculated in a blinded fashion and are means of triplicate determinations.
(§2) For the 48 hour proliferation, cells were cultured with calcium channel antagonists or without calcium channel antagonists. The IC50 values of the calcium channel antagonists were determined.
(§3) Using the measurement cell proliferation assay described hereinabove, the cell lines Jurkat, LNCap (prostate cancer cell), PC-31 (prostate cancer cell), DU145 (prostate cancer cell), MDA-468 (breast cancer cell), MDA-36 (Breast cancer cell), MCF-7 (breast cancer cell), MIA PaCa-2 (pancreatic cancer cell), Hep G2 (liver cancer cell), A549 (non-small cell lung cancer cells), NCI H460 (non-small cell lung cancer cells), HT-29 (colon cancer cell), HCT-116 (colon cancer cell) and SK OV-3 (ovarian cancer cell) were cultured in the presence of TH-1177, TH-1205, TH-1201, TH-2109, TH-2029, TH-2043, TN-2085 and TH-2279.

[2] = tested on: MDA-468 (breast cancer cell); assay: Measurement of cellular proliferation, MDA-468 cells; format: cell-based; conditions: MDA-468, 48 hours
Method: as §1, §2, §3

[3] = tested on: HCT-116 (colon cancer cell); assay: Measurement of cellular proliferation, HCT-116 cells; format: cell-based; conditions: HCT 116, 48 hours
Method: as §1, §2, §3

[4] = tested on: LNCaP prostate cancer cells; assay: Measurement of cellular proliferation, LNCaP cells; format: cell-based, human
Method: as §1, §2, §3

[5] = tested on: MIA PaCa-2 (pancreatic cancer cell); assay: Measurement of cellular proliferation, MIA PaCa-2 cells; format: cell-based; conditions: MIA PaCa-2, 48 hours
Method: as §1, §2, §3

[6] = tested on: Ca2+ entry in LNCaP cells; assay: Measurement of intracellular Ca2+ concentration (Ca2+ entry), LNCaP cells; format: cell-based, human
Method: Cells were incubated in growth media containing 1 μM of the acetoxy-methyl ester of the Ca^2+-sensitive fluorescent dye indo-1 (indo-1/AM, Molecular Probes, Eugene, Oreg.) for 1 hour at 37° C. Cells were washed three times in buffer A (10 mM HEPES, pH 7.4, 1 mM MgCl2, 3 mM KCl, 1 mM CaCl2, 140 mM NaCl, 0.1% glucose, 1% fetal bovine serum) and suspended to a final concentration of 10^6/ml. Prior to stimulation, cells were warmed to 37° C. Prior to stimulation, cells were also incubated with drug, calcium channel antagonists and the IC50 values were determined. Changes in [Ca^2+] were monitored in an SLM 8100C spectrofluorometer (SLM/Aminco, Urbana, Ill.) using previously published methods, Haverstick, et al. (1998) Cell Calcium, 23: 361-368; Densmore, et al. (1996) Am. J. Physiol., 271:C1494-1503, incorporated herein by reference.
Calcium influx into the cell is suitably stimulated using either (1) a physiological ligand or (2) an endoplasmic reticulum (ER) ATPase inhibitor. Preferably, a physiological ligand is used to stimulate calcium influx into the cell.
Endoplasmic Reticulum (ER) ATPase inhibitor, as used herein, is any compound which stimulates the release of calcium from the endoplasmic reticulum into the cytoplasm, which, in turn, activates calmodulin, which, in turn, activates calcium entry into the cell (for review of ER ATPase inhibitors, see Thastrup, O, Agents and Actions (1990), 29:8-15; Inesi and Sagara, Archives of Biochem. and Biophys., 298:313-7 and Darby, et al., Biological Signals (1993), 2:293-304). Preferred ER ATPase inhibitors include cyclopiazonic acid (available from Sigma, St. Louis, Mo.) and thapsigargin (available from Sigma).
TH-1177 blocked capacitative Ca^2+ entry in human prostate cancer cells. In electrically non-excitable cells, Ca^2+ influx is triggered by release of Ca^2+ from its internal storage depot by a phenomenon that has been called “capacitative”Ca^2+ entry (Putney, J. W., Jr. (1986) Cell Calcium, 7:1-12; Haverstick, et al. (1993) Mol. Biol. Cell, 4: 173-184; Kohn, et al. Proc. Natl. Acad. Sci. USA, 92: 1307-1311, incorporated herein by reference). Capacitative entry can be initiated by treatment of cells with thapsigargin. Thapsigargin inhibits the Ca^2+-ATPase of the endoplasmic reticulum allowing uncompensated leak of Ca^2+ from this compartment into the cytosol thereby causing Ca^2+ entry in the absence of engagement of a specific receptor. (Thastrup, et al. (1990) Proc. Natl. Acad. Sci. USA, 87: 2466-2470; Takemura, et al. (1989) J. Biol. Chem. 264: 12266-12271, incorporated herein by reference).
The P2 purinergic receptor is linked to activation of the Ca^2+ entry pathway in many types of cells including prostate cancer cells (Fang, et al. (1992) J. Clin. Invest. 89: 191-196). […]

[7] = tested on: NCI H460 (non-small cell lung cancer cells); assay: Measurement of cellular proliferation, NCI H460 cells; format: cell-based; conditions: NCI H460, 48 hours; read-out: PROLIFERATION IC50 NCl H460
Method: as §1, §2, §3

- IC50 ([1]; FIG. 6B, 48 hours, read-out: IC50 for inhibition of PC3 proliferation): 14 µM
- IC50 ([1]; PC-3, 48 hours, read-out: PROLIFERATION IC50 PC-3): 15 µM
- IC50 [2]: 13 µM
- IC50 [3]: 37 µM
- IC50 ([4]; FIG. 6A, 48 hours, read-out: IC50 for inhibition of LNCaP proliferation): 4 µM
- IC50 [5]: 17 µM
- IC50 ([6]; EGTA chelation of extracellular Ca2+ considered 100% inhibition, read-out: IC50 for blocking Ca2+ entry, LNCaP cells): 3 µM
Structure (SMILES): COc1ccc(CCN2CCC[C@H]2COC(c2ccccc2)c2ccc(Cl)cc2)cc1 (stereo partly shown) [TH-1177]
- Cell growth in presence of compound ([4]; LNCaP, 1 μM or 3 μM, FIG. 7, growth resumed after removal): growth was stopped
- Effect of prior treatment on response to second exposure ([4]; LNCaP, FIG. 8): no effect
- Effect on increase in [Ca2+]i stimulated by thapsigargin ([6]; LNCaP, 300 nM thapsigargin, drug added before stimulus): dose dependent inhibition
- Effect on rise in [Ca2+]i stimulated by ATP ([6]; LNCaP, 1 mM ATP, 10 μM TH-1177 added prior): inhibited
- Effect on release of Ca2+ from the internal storage pool ([6]; LNCaP, EGTA in medium, 1 mM ATP): no effect
- IC50 [7]: 15 µM
